# Like-named read-outs stand apart in the source and are kept apart here.
# Assays:
# [1] = tested on: S. aureus; test: Microdilution antimicrobial susceptibility test (MIC); assay type: cell-based; settings: Staphylococcus aureus; MIC, average; read-out: S. aureus (μg/ml) avg
# Experimental: Stock solutions of tested compounds were prepared in N,N-dimethylformamide (DMF) at a concentration of 5 mg/mL. Working solutions of the tested compounds were then prepared from the stock solutions, in Mueller-Hinton broth (MHB) with a starting concentration of 64 μg/mL.
# Bacterial inocula were prepared from overnight culture (i.e., one fresh colony from agar plate in 5 ml MHB; H. influenzae was grown in MHB with the addition of yeast extract, haematin, and NAD), centrifuged 2×5 min/3000 rpm (for S. pneumoniae and H. influenzae, 2×10 min/3000 rpm), and dispensed in 5 ml of fresh MHB each time, such that the bacterial suspension is diluted to obtain 100 colony forming units (cfu) in a microplate well (100 μl total volume).
# Microplate wells were filled with two-fold dilutions of test compound (50 μl), starting with 64 μg/ml. Wells were then filled with 50 μl of bacterial inoculum (final volume: 100 μl/well). The plates were incubated at 37° C. for 18-24 hours (S. pneumoniae was grown in a CO2-enriched atmosphere).
# [2] = molecular target: T1, bacterial DHFR (bDHFR) (Escherichia coli, UniProt P0ABQ4); test: DHFR enzyme assay, Ki determination, bacterial DHFR; assay type: biochemical, E. coli
# T1 construct: gift of Eric Brown, McMaster University
# Experimental: Human and Bacterial DHFR: E. coli DHFR was kindly provided by Eric Brown of MacMaster University.
# (§1) Dihydrofolic acid and NADPH were purchased from Sigma. Enzyme assays were adapted for microtitre format from a previously published procedure (2, 3). All assays were performed in a 250 μl volume in 96-well microtitre plates. Typical assays consisted of 20 nM DHFR (human or E. coli), 100 μM NADPH, and 50 μM dihydrofolic acid in 100 mM HEPES pH 8, 10 mM KCl, and 10 mM MgCl2. The assay was monitored spectrophotometrically for the conversion of NADPH to NADP+, which results in a decrease in absorbance at 340 nm.
# (§2) The reaction was initiated by the addition of 125 μl of 100 μM dihydrofolic acid. The final concentrations in the assay were 20 nM DHFR, 100 μM NADPH, 50 μM dihydrofolic acid, and a range of 500 μM to 20 nM inhibitor compound. The final DMSO concentration was 2% of the total volume. Reactions were monitored as described above.
# [3] = molecular target: T2, human DHFR (hDHFR) (Homo sapiens, UniProt P00374); test: DHFR enzyme assay, Ki determination, human DHFR; assay type: biochemical; settings: Table 3
# T2 construct: result in the amplification of a 186 amino acid hDHFR coding region; made in house; host or cells: E. coli Top10
# T2 sequence (P00374 1-187): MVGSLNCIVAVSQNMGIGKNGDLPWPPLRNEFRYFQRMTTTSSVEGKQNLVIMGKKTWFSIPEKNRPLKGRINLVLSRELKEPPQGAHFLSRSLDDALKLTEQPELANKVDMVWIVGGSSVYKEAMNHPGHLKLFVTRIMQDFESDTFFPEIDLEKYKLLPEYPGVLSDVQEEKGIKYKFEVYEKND
# Experimental: The human DHFR cDNA was cloned by PCR from the Human Universal Quick-clone™ cDNA purchased from Clontech.
# The PCR fragment was digested with restriction enzymes NdeI and HindIII, and then ligated into a derivative of the pKK223-3 expression vector (Amersham Pharmacia). The final expression vector (pFW96.2) was transformed into E. coli Top10 F40 and hDHFR protein was induced by the addition of 1 mM IPTG followed by incubation at 37° C. for 4 hrs. Recombinant human DHFR was purified based on a previously published procedure (2).
# as §1
# as §2, with “Five microliters of inhibitor compound in DMSO was added to 120 μl of enzyme solution (40 nM DHFR and 200 μM NADPH). The reaction” for “The reaction”
# V=(Vmax[S])/(Km(1+I/Ki)+[S]), where S=dihydrofolate, Km=Michaelis constant for dihydrofolate, I=inhibitor concentration.
# [4] = average, read-out: bDHFR Ki/(μM) avg
# [5] = second part of table, read-out: bDHFR
Compound,MIC [1] [µg/mL],"Ki [2, 4] [µM]","Ki ([2]; Table 3, read-out: bDHFR Ki) [µM]",Ki [3] [nM],"Ki [2, 5] [µM]","Ki ([2]; bDHFR Ki/(μM) avg, average) [µM]"
"CCC(c1cccc2ccccc12)N(C)c1ncc2c(N)nc(N)nc2n1 (single isomer, unassigned) [Compound 41]",< 0.125,0.037,–,–,–,–
CN(Cc1cnc2nc(N)nc(N)c2n1)c1ccc(C(=O)NCCCCN)cc1 [Compound 2],–,–,0.1 to 0.499,1000 to 5000,–,–
Nc1nc(N)c2nc(COc3cc([N+](=O)[O-])ccc3N)cnc2n1 [Compound 13],–,–,0.5 to 0.999,> 5000,–,–
Nc1nc(N)c2nc(CNc3cccc(OCc4ccccc4)c3)cnc2n1 [Compound 20],0.5,0.062,–,–,–,–
CN(Cc1cnc2nc(N)nc(N)c2n1)c1cccc([N+](=O)[O-])c1 [Compound 21],< 0.125,0.082,–,–,0.082,–
C[C@H](c1cccc2ccccc12)N(C)c1ncc2c(N)nc(N)nc2n1 [Compound 22],< 0.125,0.002,< 0.002,> 75000,–,–
CC(c1ccc(F)c2ccccc12)N(C)c1ncc2c(N)nc(N)nc2n1 (stereo not shown) [Compound 23],1,0.027,–,–,–,–
CC(c1cccc2ccccc12)N(C)c1ncc2c(N)nc(N)nc2n1 (stereo not shown) [Compound 24],0.25,0.015,–,–,–,–
CC(c1cccc2ccccc12)N(CCc1ccccc1)c1ncc2c(N)nc(N)nc2n1 (stereo not shown) [Compound 26],1,0.02,–,–,–,–
CC(c1c2c(cc3ccccc13)CCCC2)N(C)c1ncc2c(N)nc(N)nc2n1 (stereo not shown) [Compound 27],0.5,0.008,–,–,–,–
CC(c1ccc2c3c(cccc13)CC2)N(C)c1ncc2c(N)nc(N)nc2n1 (stereo not shown) [Compound 28],< 0.125,0.02,–,–,–,–
CCOc1ccc2ccccc2c1CN(C)c1ncc2c(N)nc(N)nc2n1 [Compound 29],< 0.125,0.02,–,–,< 0.02,–
CC(c1ccc(Cl)c2ccccc12)N(C)c1ncc2c(N)nc(N)nc2n1 (stereo not shown) [Compound 30],< 0.125,0.028,–,–,0.024,–
CC(c1c2c(cc3ccccc13)CCCC2)N(CC1CC1)c1ncc2c(N)nc(N)nc2n1 (stereo not shown) [Compound 31],1,0.024,–,–,–,–
CCN(c1ncc2c(N)nc(N)nc2n1)[C@H](C)c1ccc(C)c2ccccc12 [Compound 32],0.5,0.011,–,–,–,–
CCC(c1cccc2ccccc12)N(C)c1ncc2c(N)nc(N)nc2n1 (stereo not shown) [Compound 33],0.015,–,–,–,0.012,0.012
C=CCN(c1ncc2c(N)nc(N)nc2n1)C(C)c1cccc2ccccc12 (stereo not shown) [Compound 34],1,0.014,–,–,–,–
CC(c1cc(Cl)cc2ccccc12)N(C)c1ncc2c(N)nc(N)nc2n1 (stereo not shown) [Compound 35],0.5,0.037,–,–,–,–
CCN(c1ncc2c(N)nc(N)nc2n1)[C@H](C)c1csc2ccccc12 [Compound 36],< 0.125,0.005,–,–,0.005,–
CCN(c1ncc2c(N)nc(N)nc2n1)[C@H](C)c1ccc(F)c2ccccc12 [Compound 37],< 0.125,0.003,–,–,–,–
C[C@@H](c1ccc(F)c2ccccc12)N(C)c1ncc2c(N)nc(N)nc2n1 [Compound 38],0.5,0.06,–,–,–,–
CC(c1ccnc2ccccc12)N(C)c1ncc2c(N)nc(N)nc2n1 (stereo not shown) [Compound 39],0.25,0.015,–,–,–,–
CCC(c1ccc(F)c2ccccc12)N(C)c1ncc2c(N)nc(N)nc2n1 (stereo not shown) [Compound 40],< 0.125,0.004,–,–,–,–

Compound,MIC [1] [µg/mL],"Ki [2, 4] [µM]","Ki ([2]; Table 3, read-out: bDHFR Ki) [µM]",Ki [3] [nM],"Ki [2, 5] [µM]","Ki ([2]; bDHFR Ki/(μM) avg, average) [µM]"
CC[C@H](c1cccc2ccccc12)N(C)c1ncc2c(N)nc(N)nc2n1 [Compound 42],< 0.125,0.004,–,–,–,–
CCCC(c1cccc2ccccc12)N(C)c1ncc2c(N)nc(N)nc2n1 (stereo not shown) [Compound 43],< 0.125,0.004,–,–,–,–
CCC(c1ccc(Cl)c2ccccc12)N(C)c1ncc2c(N)nc(N)nc2n1 (stereo not shown) [Compound 44],< 0.125,0.004,–,–,–,–
CCN(c1ncc2c(N)nc(N)nc2n1)C(C)c1cccc2ccccc12 (stereo not shown) [Compound 45],2,0.008,–,–,–,–
C=CCN(Cc1cnc2nc(N)nc(N)c2n1)c1ccccc1 [Compound 46],2,0.093,–,–,–,–
CC(c1cccc2ccccc12)N(CCc1cccc(F)c1)c1ncc2c(N)nc(N)nc2n1 (stereo not shown) [Compound 47],2,0.023,–,–,–,–
CC(c1ccc(OCc2c(F)cccc2Cl)cc1)N(C)c1ncc2c(N)nc(N)nc2n1 (stereo not shown) [Compound 48],2,0.007,–,–,–,–
CCCOCCN(c1ncc2c(N)nc(N)nc2n1)C(C)c1cccc2ccccc12 (stereo not shown) [Compound 49],2,0.02,–,–,–,–
CCN(c1ncc2c(N)nc(N)nc2n1)C(C)c1ccc(C)c2ccccc12 (stereo not shown) [Compound 50],2,0.004,–,–,–,–
Cc1[nH]ncc1CCCN(c1ncc2c(N)nc(N)nc2n1)C(C)c1cccc2ccccc12 (stereo not shown) [Compound 51],2,0.022,–,–,–,–
Cc1ccc(C(C)N(CC2CC2)c2ncc3c(N)nc(N)nc3n2)c2ccccc12 (stereo not shown) [Compound 52],2,0.022,–,–,–,–
CCc1ccc2ccc(C(C)N(CC3CC3)c3ncc4c(N)nc(N)nc4n3)cc2c1 (stereo not shown) [Compound 53],2,0.03,–,–,–,–
Cc1ccc([C@@H](C)N(CC2CC2)c2ncc3c(N)nc(N)nc3n2)c2ccccc12 [Compound 54],2,0.01,–,–,–,–
CC(c1ccc(Cl)c2ccccc12)N(CC1CC1)c1ncc2c(N)nc(N)nc2n1 (stereo not shown) [Compound 55],2,0.019,–,–,–,–
CCc1ccc2ccccc2c1C(C)N(C)c1ncc2c(N)nc(N)nc2n1 (stereo not shown) [Compound 56],2,0.093,–,–,–,–
CC(c1cccc2ccccc12)N(CCc1ccc(Cl)cc1)c1ncc2c(N)nc(N)nc2n1 (stereo not shown) [Compound 57],2,0.011,–,–,–,–
CC(c1cccc2ccccc12)N(CCCCO)c1ncc2c(N)nc(N)nc2n1 (stereo not shown) [Compound 58],2,0.015,–,–,–,–
C[C@H](c1csc2ccccc12)N(CC1CC1)c1ncc2c(N)nc(N)nc2n1 [Compound 59],2,0.005,–,–,–,–
CC(c1cccc2ccccc12)N(CCC(C)(C)C)c1ncc2c(N)nc(N)nc2n1 (stereo not shown) [Compound 60],2,0.029,–,–,–,–
CCCN(Cc1cnc2nc(N)nc(N)c2n1)c1ccccc1 [Compound 61],2,0.013,–,–,–,–
Nc1nc(N)c2nc(CNc3ccc(Cl)c4ccccc34)cnc2n1 [Compound 63],–,–,–,–,0.104,–
Cc1ccc(C(F)(F)F)cc1NCc1cnc2nc(N)nc(N)c2n1 [Compound 64],–,–,–,–,0.385,–
Nc1nc(N)c2cnc(NCc3ccc(Oc4ccc(F)cc4)cc3)nc2n1 [Compound 66],–,–,< 1,> 500000,–,–

# Reference: US20030176436A1, “Novel heterocyclic compounds as selective bacterial DHFR inhibitors and their uses thereof” (priority 2001, published 2003)
